# Values quoted from earlier work as cited in patent publication US12097208B2, “Method for treating nasal, sinonasal, and nasopharyngeal tissue infection and/or inflammation” (OTICARA, INC., priority 2019, dated 2024).
# What was measured:
# [1] = in vivo
# [2] = tested on: Pseudomonas aeruginosa
# [3] = tested on: Steptococci
# [4] = tested on: Staphylococci
# [5] = tested on: Gardnerella vaginalis
# [6] = tested on: Corynebacteria
Compound,Biological Half Life [1],other results
"CCC(=O)OCC(=O)[C@@]1(OC(=O)CC)[C@@H](C)C[C@H]2C3CCC4=CC(=O)C=CC4(C)[C@@]3(F)[C@@H](O)CC21C (stereo partly drawn) [Betamethasone dipropionate, 9-Fluoro-11β,17,21-trihydroxy-16β-methylpregna-1,4-diene-3,20-dione 17,21-dipropionate]",36-54 Hours,–
Clc1ccccc1C(c1ccccc1)(c1ccccc1)n1ccnc1 [clotrimazole],–,Effect on Pseudomonas aeruginosa [2]: reduction; Antibacterial activity against Steptococci [3]: antibacterial activity; Antibacterial activity against Staphylococci [4]: antibacterial activity; Antibacterial activity against Gardnerella vaginalis [5]: antibacterial activity; Antibacterial activity against Corynebacteria [6]: antibacterial activity
C[C@H]1C[C@@H]2[C@H]([C@@H](O)C[C@@]3(C)[C@H]2CC[C@]3(O)C(=O)CO)[C@@]2(C)C=CC(=O)C=C12 [Methyl-prednisolone],18-36 Hours,–

# Further lines, with some results ahead:
Biological Half Life [1],Compound,other results
18-36 Hours,C[C@]12C=CC(=O)C=C1CC[C@H]1[C@@H]3C[C@@H](O)[C@](O)(C(=O)CO)[C@@]3(C)C[C@H](O)[C@@]12F [triamcinolone],–
18-36 Hours,C[C@]12C=CC(=O)C=C1CC[C@@H]1[C@@H]2[C@@H](O)C[C@@]2(C)[C@H]1CC[C@]2(O)C(=O)CO [prednisolone],–
8-12 Hours,C[C@]12CCC(=O)C=C1CC[C@@H]1[C@@H]2[C@@H](O)C[C@@]2(C)[C@H]1CC[C@]2(O)C(=O)CO [hydrocortisone],–
